Experimental data from PMC6835763, “Influence of Short Cationic Lipopeptides with Fatty Acids of Different Chain Lengths on Bacterial Biofilms Formed on Polystyrene and Hydrogel Surfaces” (Pharmaceutics, 2019).
Converted amounts (≈) assume the structure as drawn. Where a SMILES comes first, the peptide text is derived from it. Bridges are numbered along the chain shown (N, C = ends). Roman numbers before positions name the chains, in order. The star is where a group is joined. Palmitoyl = CCCCCCCCCCCCCCCC(=O)*; Lauroyl = CCCCCCCCCCCC(=O)*

Tests used:
[1] = tested on: PM biofilm; conditions: cited from earlier work
Description: (§1) They were ineffective against PM, which was difficult to eradicate with peptides (and antibiotics) in previously performed studies. PM can cause infections of the urinary tract, skin, subcutaneous tissue, and wounds. PM is known as a biofilm former, and an evident increase of PM resistance to broad-spectrum fluoroquinolones and cephalosporins has been observed. In the previous study, mature PM b ...

[2] = tested on: SA biofilms; parameters: method as in PMID 24779193; conditions: cited from earlier work
[3] = tested on: PA biofilm; conditions: 3-day-old structures; cited from earlier work
Description: as §1

[4] = tested on: EC biofilm; conditions: cited from earlier work
Description: as §1

[5] = tested on: Pseudomonas aeruginosa ATCC 9027; test: MBFIC assay (biofilm formation inhibition, resazurin); assay type: cell-based; conditions: ca. 5 × 10^8 CFU/mL in MHB II, 37 °C, 18 h, visual, triplicate; for MBFIC P. aeruginosa, CL: contact lenses (CL, Etafilcon A hydrogel) in 24-well plates; for MBFIC P. aeruginosa, PS: polystyrene plates (PS), 96-well
Procedure: (§2) To determine the inhibitory effect of antimicrobials on the formation of biofilm on hydrophobic surfaces, the bacterial suspensions of strains (initial inoculum of ca. 5 × 10^8 CFU/mL in MHB II medium supplemented with antimicrobials) were cultured on 96-well PS at 37 °C for 18 h under aerobic conditions. After incubation, the suspensions were aspirated, and the wells were rinsed three times with sterile phosphate buffer PBS (AppliChem, Darmstadt, Germany) in order to remove the planktonic cells. Resazurin (final concentration per sample = 0.005%) was applied as a cell viability reagent for reading the results. In contact with the living cells, the dye is metabolized by bacterial dehydrogenases, resulting in a reduction of blue resazurin to pink resorufin. All assays were performed in triplicate and included the growth controls (positive controls: bacterial suspensions without antimicrobials) and the sterility controls (negative controls: a sterile MBH medium). After 1h of incubation, a visual evaluation of results was made. […] In a preliminary study, it was established that the application of lipopeptides at a concentration found active from visual evaluation caused the reduction of bacterial metabolism to approximately 10% (or less) of the positive control once the results were evaluated with a spectrophotometer. After 1 h of incubation with the dye, absorbance was measured at 570 and 600 nm using a microplate reader (Thermo Fisher Scientific, Waltham, MA, USA). The metabolic activity of bacteria in the samples was measured according to the formula presented in the previous paper.
(§3) The MBFIC assay with CL was applied in order to access the influence of lipopeptides on the biofilm formation on hydrogel surfaces. The entire sterile CL (1-Day Acuvue Moist, containing Etafilcon A., purchased from Johnson & Johnson (Vision Care, Jacksonsville, FL, USA), were placed in 24-well PS (Orange Scientific, Braine-l’ Alleud, Belgium) and the MBFICs were determined according to the above protocol.

[6] = tested on: Enterococcus faecalis ATCC 29212; test: as above; assay type: cell-based; conditions: ca. 5 × 10^8 CFU/mL in MHB II, 37 °C, 18 h, visual, triplicate; for MBFIC E. faecalis, CL: contact lenses (CL, Etafilcon A hydrogel) in 24-well plates; for MBFIC E. faecalis, PS: polystyrene plates (PS), 96-well
Procedure: as §2, §3

[7] = tested on: Escherichia coli ATCC 25922; test: as above; assay type: cell-based; conditions: ca. 5 × 10^8 CFU/mL in MHB II, 37 °C, 18 h, visual, triplicate; for MBFIC E. coli, CL: contact lenses (CL, Etafilcon A hydrogel) in 24-well plates; for MBFIC E. coli, PS: polystyrene plates (PS), 96-well
Procedure: as §2, §3

[8] = tested on: Staphylococcus epidermidis ATCC 14990; test: as above; assay type: cell-based; conditions: ca. 5 × 10^8 CFU/mL in MHB II, 37 °C, 18 h, resazurin, visual, triplicate; for MBFIC S. epidermidis, CL: contact lenses (CL, Etafilcon A hydrogel) in 24-well plates; for MBFIC S. epidermidis, PS: polystyrene plates (PS), 96-well
Procedure: as §2, §3

[9] = tested on: Proteus mirabilis PCM 543; test: as above; assay type: cell-based; conditions: ca. 5 × 10^8 CFU/mL in MHB II, 37 °C, 18 h, visual, triplicate; for MBFIC P. mirabilis, CL: contact lenses (CL, Etafilcon A hydrogel) in 24-well plates; for MBFIC P. mirabilis, PS: polystyrene plates (PS), 96-well
Procedure: as §2, §3

[10] = tested on: Staphylococcus aureus ATCC 25923; test: as above; assay type: cell-based; conditions: ca. 5 × 10^8 CFU/mL in MHB II, 37 °C, 18 h, resazurin, visual, triplicate; for MBFIC S. aureus, CL: contact lenses (CL, Etafilcon A hydrogel) in 24-well plates; for MBFIC S. aureus, PS: polystyrene plates (PS), 96-well
Procedure: as §2, §3

[11] = tested on: Pseudomonas aeruginosa ATCC 9027; assay type: cell-based; conditions: ATCC 9027, 18 h
Procedure: (§4) The reference strains of gram-positive and gram-negative bacteria (Table 2) were obtained from the Polish Collection of Microorganisms (Polish Academy of Science, Wroclaw, Poland). The microorganisms were cultured in Muller Hinton Broth II (MHB II, Biocorp, Warsaw, Poland), overnight, at 37 °C. The MICs of synthetic lipopeptides and conventional antimicrobials were determined using the broth microdilution method according to the Clinical and Laboratory Standard Institute (CLSI) guidelines on reference strains. […] The PS were incubated under aerobic conditions at 37 °C for 18 h. The MIC (μg/mL) was assumed as the lowest concentration of the compound that inhibited the growth of the microorganisms. All experiments were performed in triplicate and included the growth and sterility controls.

[12] = tested on: Enterococcus faecalis ATCC 29212; assay type: cell-based; conditions: ATCC 29212, 18 h
Procedure: as §4

[13] = tested on: Escherichia coli ATCC 25922; assay type: cell-based; conditions: ATCC 25922, 18 h
Procedure: as §4

[14] = tested on: Staphylococcus epidermidis ATCC 14990; assay type: cell-based; conditions: ATCC 14990, 18 h
Procedure: as §4

[15] = tested on: Staphylococcus aureus ATCC 25923; assay type: cell-based; conditions: ATCC 25923, 18 h
Procedure: as §4

[16] = RP-HPLC retention to evaluate the hydrophobicity of lipopeptides; assay type: physicochemical; conditions: chromatographic, Luna C18(2) 3.0 × 100 mm, 5.0 µm, linear 20–80% acetonitrile in water over 10 min, 0.1% formic acid, 0.5 mL/min, UV 214 nm, used to evaluate hydrophobicity
Procedure: The crude peptide was lyophilized and subsequently purified by RP-HPLC. The purifications were carried out on a Phenomenex Gemini-NX C18 column (21.20 × 100 mm, 5.0 µm particle size, and 110 Å pore size). Acetonitrile and water, both containing 0.1% of TFA, were used as the mobile phase. UV detection at 214 nm was used. The crude peptides were eluted with a linear 20–80% acetonitrile gradient in deionized water over 60 min at a flow rate of 10.0 mL/min. The purity and identity of the peptides were confirmed with LC-MS analysis. A Waters Alliance e2695 RP-HPLC system (Waters, Milford, MA, USA) with Waters 2998 PDA (Waters, Milford, MA, USA) and Acquity QDA detectors (Empower®3 software, Database Version 7.21.00.00) was used. All analyses were carried out on a Phenomenex, Luna C18(2) column (3.0 × 100 mm, 5.0 µm particle size, 100 Å pore size). The samples were analyzed with a linear 20–80% acetonitrile gradient in deionized water over 10 min at a flow rate of 0.5 mL/min with UV detection at 214 nm. Both eluents contained 0.1% (v/v) of formic acid. The pure fractions (>95%, by HPLC analysis) were collected and lyophilized. The retention time and percentage of ACN (%) at which each peptide was eluted are included in Table 1 to evaluate the hydrophobicity of lipopeptides. The identity of all compounds was confirmed using mass spectrometry (Waters Alliance e2695 system with Acquity QDA detector, Waters, Milford, MA, USA) with electrospray ionization in positive ion mode (ESI-MS). In this mode, a proton is attached to basic moieties (amine groups, guanidine groups). The theoretical mass of the peptide was calculated and then expected ions (m/z—mass to charge ratio) were compared to measured m/z. The results are presented in Table 1, and mass spectra are presented in the Supplementary Materials.

[17] = tested on: Pseudomonas aeruginosa ATCC 9027; assay type: cell-based; conditions: ATCC 9027, 24 h
Procedure: (§5) The biofilms of bacteria associated with the biofilm-related infections were cultured on 96-well flat bottom PS and on CL placed in 24-well plates. The bacteria at initial inoculums of 5 × 10^8 CFU/mL in MHB II were added to the plates and incubated at 37 °C under aerobic conditions. After 24 h of incubation, all cultures were rinsed three times with PBS and fresh medium was added. Subsequently, the obtained biofilm cultures were exposed to solutions of antimicrobials applied at graded concentrations ranging from 1 to 512 μg/mL for 24 h at 37 °C. The anti-biofilm activity of antimicrobials was visualized by resazurin (final concentration per sample = 0.005%) in the same way as in the MBFIC assay. All experiments were performed in triplicate and included growth controls (positive control: bacterial suspension without antimicrobials) and sterility controls (negative controls: sterile MBH II medium).

[18] = tested on: Enterococcus faecalis ATCC 29212; assay type: cell-based; conditions: ATCC 29212, 24 h
Procedure: as §5

[19] = tested on: Escherichia coli ATCC 25922; assay type: cell-based; conditions: ATCC 25922, 24 h
Procedure: as §5

[20] = tested on: Staphylococcus epidermidis ATCC 14990; assay type: cell-based; conditions: ATCC 14990, 24 h
Procedure: as §5

[21] = tested on: Proteus mirabilis PCM 543; assay type: cell-based; conditions: PCM 543, 24 h
Procedure: as §5

[22] = tested on: Staphylococcus aureus ATCC 25923; assay type: cell-based; conditions: ATCC 25923, 24 h
Procedure: as §5

| MIC P. aeruginosa [11] [µg/mL] | MIC E. faecalis [12] [µg/mL] | MIC E. coli [13] [µg/mL] | MIC S. epidermidis [14] [µg/mL] | MIC S. aureus [15] [µg/mL] | % ACN at which the peptide was eluted [16] [%] | tR' (adjusted retention time) [16] [min] | Compound | susceptibility of mature PM biofilms [1] | MBFIC P. aeruginosa, CL [5] | MBFIC P. aeruginosa, PS [5] | MBFIC E. faecalis, CL [6] | MBFIC E. faecalis, PS [6] | MBFIC E. coli, CL [7] [µg/mL] | MBFIC E. coli, PS [7] [µg/mL] | MBFIC S. epidermidis, CL [8] [µg/mL] | MBFIC S. epidermidis, PS [8] [µg/mL] | MBFIC P. mirabilis, CL [9] | MBFIC P. mirabilis, PS [9] | MBFIC S. aureus, CL [10] [µg/mL] | MBFIC S. aureus, PS [10] [µg/mL] | other results |
| --- | --- | --- | --- | --- | --- | --- | --- | --- | --- | --- | --- | --- | --- | --- | --- | --- | --- | --- | --- | --- | --- |
|  |  |  |  |  |  |  | omiganan | resistant |  |  |  |  |  |  |  |  |  |  |  |  |  |
|  |  |  |  |  |  |  | O=C(O)c1cn(C2CC2)c2cc(N3CCNCC3)c(F)cc2c1=O [ciprofloxacin] | resistant |  |  |  |  |  |  |  |  |  |  |  |  | susceptibility of SA biofilms [2]: resistant; concentration eliminating PA biofilm [3]: 4 µg/mL; effective concentration against EC biofilm [4]: 1 µg/mL |
|  |  |  |  |  |  |  | polymyxin B |  |  |  |  |  |  |  |  |  |  |  |  |  | concentration eradicating the PM biofilm ([1]; mature PM biofilms): 512 µg/mL |
| 256 (≈ 208 µM) | 256 (≈ 208 µM) | 256 (≈ 208 µM) | 128 (≈ 104 µM) | 256 (≈ 208 µM) | 47.8 | 4.63 | CCCCCCCCCCCCCCCC(=O)N[C@@H](CCCCN)C(=O)N[C@@H](CCCCN)C(=O)N[C@@H](CSSC[C@H](NC(=O)[C@H](CCCCN)NC(=O)[C@H](CCCCN)NC(=O)CCCCCCCCCCCCCCC)C(N)=O)C(N)=O [Lipopeptide 6, C16-KKC-NH2] (I: Palmitoyl-Lys-Lys-Cys-NH2 / II: Palmitoyl-Lys-Lys-Cys-NH2; disulfide I:3-II:3) |  | 256 µg/mL | 512 µg/mL | 256/256 μg/mL | 256/256 μg/mL | 128 | 512 | 64 | 256 | >512/512 μg/mL | >512/512 μg/mL | 64 | 256 | MBEC P. aeruginosa, CL [17]: >512/>512 μg/mL; MBEC E. faecalis, CL [18]: 512/512 μg/mL; MBEC E. coli, CL [19]: 512/512 μg/mL; MBEC S. epidermidis, CL [20]: 256/256 μg/mL; MBEC P. mirabilis, CL [21]: >512/>512 μg/mL; MBEC S. aureus, CL [22]: 512 µg/mL |
|  |  |  |  |  |  |  | C16-RR-NH2 [Lipopeptide C16-RR-NH2] | resistant |  |  |  |  |  |  |  |  |  |  |  |  |  |
| 512 (≈ 1060 µM) | 64 (≈ 132 µM) | 512 (≈ 1060 µM) | 32 (≈ 66.2 µM) | 64 (≈ 132 µM) | 33.9 | 2.32 | CCCCCCCCCCCC(=O)N[C@@H](CCCCN)C(=O)N[C@@H](CCCNC(=N)N)C(N)=O [Lipopeptide 2, C12-KR-NH2] (Lauroyl-Lys-Arg-NH2) |  | 512/512 μg/mL | 512/512 μg/mL | 512/512 μg/mL | 512/512 μg/mL | 128 | 512 | 32 | 16 | >512/512 μg/mL | >512/512 μg/mL | 128 | 64 | MBEC P. aeruginosa, CL [17]: >512/>512 μg/mL; MBEC E. faecalis, CL [18]: 128 µg/mL; MBEC E. coli, CL [19]: 512 µg/mL; MBEC S. epidermidis, CL [20]: 256 µg/mL; MBEC P. mirabilis, CL [21]: >512/>512 μg/mL; MBEC S. aureus, CL [22]: > 512 µg/mL |
